# Laboratory results reported in patent publication US9622977B2, “Sustained release drug delivery system” (BIOPLUS LIFE SCIENCES PVT, LTD., priority 2008, dated 2017).
# Read-outs that look alike come from different tables or passages of the source.
# Key:
# [1] = rat; for % Dose recovered: 6-CF, oral
# [2] = oral; cited from earlier work
# [3] = In vitro drug release study of microspheres (USP paddle); format: physicochemical; conditions: HCl buffer pH 1.2, first hr
# Method: 900 ml of HCl buffer (pH 1.2) was used as dissolution medium for first hr and phosphate buffered saline (PBS, pH 6.8) was used for next 11 hrs. The dried microspheres were filled in hard gelatin capsules and were placed in dissolution vessels. 5 ml sample was withdrawn at various time intervals and volume of the media was replenished with an equal amount of dissolution media. The samples were then analyzed spectroflurometrically.
# Erythrocytes = assay: Hemolytic toxicity assay; format: cell-based; conditions: 1 hr of incubation at 37°C, water = 100%
# Method: The procedure from literature was followed to perform the hemolytic toxicity studies.^19 Blood from healthy donors was collected and anticogulated with 3% sodium citrate. Erythrocytes were separated from blood plasma by centrifugation (3000×g, 5 min) and suspended in phosphate buffer saline (PBS) of pH 7.4. […] 0.5 ml 2% w/v dispersion of microspheres formulations in PBS (pH 7.4) was added to 4.5 ml of normal saline and interacted with 1 ml RBC suspension. […] After 1 hr, mixture was centrifuged and supernatants were taken and diluted with an equal volume of normal saline and absorbance was taken at 540 nm against supernatant of normal saline diluted similarly as blank. The percentage hemolysis was thus determined for each sample by taking absorbance of water as 100% hemolytic sample.
# [4] = Acyclovir IR 400 mg single dose; From Ref. 35; cited from earlier work
# in vivo = conditions: Sprague-Dawley, rat, po
# Method: Rats were kept on fasting 12 hours before drug administration and until 24 hours post dosing. Water ad libitum was given throughout the study. […] Second, third, fourth, fifth and sixth group received oral administration of chitosan, thiolated chitosan, trimethyl chitosan, CARBOPOL® or METHOCEL® microspheres, respectively. […] Supernatant was collected and acetonitrile was added to precipitate the proteins. The precipitated proteins were settled by centrifugation at 2000 rpm for 15 min. The supernatant was collected and filtered through a 0.45 μm filter into volumetric flask and drug concentration was determined by spectrofluorometric assay.
smiles,measurement,setting,value
"O=C(O)c1ccc2c(c1)C1(OC2=O)c2ccc(O)cc2Oc2cc(O)ccc21 [6-CF solution, 6-Carboxyfluorescein]",% Dose recovered,"[1]; 1. Stomach, 2 hr",52.2%
same,% Dose recovered,"[1]; 1. Stomach, 6 hr",0%
same,% Dose recovered,"[1]; 1. Stomach, 8 hr",0%
same,% Dose recovered,"[1]; 1. Stomach, 10 hr",0%
same,% Dose recovered,"[1]; 2. Duodenum, 2 hr",10.9%
same,% Dose recovered,"[1]; 2. Duodenum, 4 hr",19.5%
same,% Dose recovered,"[1]; 2. Duodenum, 6 hr",0%
same,% Dose recovered,"[1]; 2. Duodenum, 8 hr",0%
same,% Dose recovered,"[1]; 2. Duodenum, 10 hr",0%
same,% Dose recovered,"[1]; 3. Jejunum, 2 hr",0%
same,% Dose recovered,"[1]; 3. Jejunum, 4 hr",10.6%
same,% Dose recovered,"[1]; 3. Jejunum, 6 hr",0%
same,% Dose recovered,"[1]; 3. Jejunum, 8 hr",0%
same,% Dose recovered,"[1]; 3. Jejunum, 10 hr",0%
same,% Dose recovered,"[1]; 4. Jejunum, 2 hr",0%
same,% Dose recovered,"[1]; 4. Jejunum, 4 hr",5.8%
same,% Dose recovered,"[1]; 4. Jejunum, 6 hr",6.9%
same,% Dose recovered,"[1]; 4. Jejunum, 8 hr",0%
same,% Dose recovered,"[1]; 4. Jejunum, 10 hr",0%
same,% Dose recovered,"[1]; 5. Jejunum, 2 hr",0%
same,% Dose recovered,"[1]; 5. Jejunum, 4 hr",0%
same,% Dose recovered,"[1]; 5. Jejunum, 6 hr",3.9%
same,% Dose recovered,"[1]; 5. Jejunum, 8 hr",0%
same,% Dose recovered,"[1]; 5. Jejunum, 10 hr",0%
same,% Dose recovered,"[1]; 6. Ileum, 2 hr",0%
same,% Dose recovered,"[1]; 6. Ileum, 4 hr",0%
same,% Dose recovered,"[1]; 6. Ileum, 6 hr",0%
same,% Dose recovered,"[1]; 6. Ileum, 8 hr",5.9%
same,% Dose recovered,"[1]; 6. Ileum, 10 hr",0%
same,% Dose recovered,"[1]; 7. Remaining Intestine, 2 hr",0%
same,% Dose recovered,"[1]; 7. Remaining Intestine, 4 hr",0%
same,% Dose recovered,"[1]; 7. Remaining Intestine, 6 hr",0%
same,% Dose recovered,"[1]; 7. Remaining Intestine, 8 hr",0%
same,% Dose recovered,"[1]; 7. Remaining Intestine, 10 hr",0%
same,% recovered from stomach following oral administration,[1]; time not stated,more than 30%
Cn1c(=O)c2[nH]cnc2n(C)c1=O [theophylline],bioavailability,[2],100%
Nc1nc2c(ncn2COCCO)c(=O)[nH]1 [Acyclovir],% drug released in first 1 hr,[3],95.3±4.1%
same,% Hemolysis,Erythrocytes,10.2 ± 1.4%
same,Area under plasma concentration profile (AUC),[4],3307.5 ng·h/mL
same,Time to maximum plasma concentration (tmax),[4],1.4 h
same,bioavailability,[2],10-20%
same,AUC,in vivo,282 ± 28 ng·h/mL
same,Cmax,in vivo; 5 mg/kg,53.1 ± 6.8 ng/mL
same,MRT,in vivo; 5 mg/kg,5.4 ± 0.5 h
same,bioavailability,in vivo; 5 mg/kg,100%
